Common to all, as to format: cell-based
Test [1] concerns the target T1, interaction between Trα and NCoR (Homo sapiens, UniProt P10827).
T1 construct: expressed in transfected cells; host or cells: Saccharomyces cerevisiae TB50 (WT and ERG6-deleted)
T1 sequence (P10827 1-410 isoform P10827-2): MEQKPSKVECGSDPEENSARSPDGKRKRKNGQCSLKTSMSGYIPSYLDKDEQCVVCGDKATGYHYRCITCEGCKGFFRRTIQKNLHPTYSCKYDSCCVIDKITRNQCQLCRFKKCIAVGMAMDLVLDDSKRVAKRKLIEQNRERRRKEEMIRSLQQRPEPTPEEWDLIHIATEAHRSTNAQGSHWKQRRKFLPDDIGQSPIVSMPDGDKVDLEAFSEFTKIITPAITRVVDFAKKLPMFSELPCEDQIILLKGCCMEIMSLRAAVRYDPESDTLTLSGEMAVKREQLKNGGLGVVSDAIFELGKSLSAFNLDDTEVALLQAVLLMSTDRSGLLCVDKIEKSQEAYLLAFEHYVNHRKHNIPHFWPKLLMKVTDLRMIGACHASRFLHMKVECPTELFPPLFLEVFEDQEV
The test can be described thus: dual (duplex) two-hybrid assay, two yeast populations mixed in one well, ruc signal. As for the experimental part: (§1) Yeast strains TB50 WT and TB50 ERG6 were transformed as described in Figure 1. They were grown from frozen transformants. For each strain, the two yeast cultures containing the two protein interactions were mixed together and delivered into a microwell plate. […] Experiments were performed in duplicates. The values are normalized with the signals obtained in presence of DMSO.
(§2) 20µl of yeast cultures were delivered into 96 well half area white plates (Coming-Costar, ref. 3693). When applicable, 2µl of either DMSO 10% or 10µM of small molecules were added. 2µl of Galactose 20% were added to the wells to induce the expression of the preys. When two different yeast cultures were mixed in a single well, 10µl of each culture were used, to reach a total of 20µl. Plates were incubated at room temperature and left non-agitated for various times. […] Briefly, to lyse the yeast and reveal the activity of firefly luciferase, 25µl of reagent was added and the plates were incubated for another 40 to 60min at room temperature, without agitation, before being read in a luminometer. To reveal the activity of Renilla luciferase, 25µl of "stop&glo reagent" were added to the wells and the plates were incubated for another 60min at room temperature, without agitation, before a second reading. Luminescence was measured by a Trilux (Perkin Elmer) setting the integration at 1sec/well. […]

The test system of test [2] is lexA-TGFβ-R and B42-FKBP12. The test can be described thus: dual (duplex) two-hybrid assay, two yeast populations mixed in one well, luc signal. As for the experimental part: as §1, §2
The next test concerns the target TGF-β-R/FKBP12 (Rattus norvegicus, UniProt Q62658). The test is described as follows: luminescent yeast two-hybrid assay, inhibition of protein interaction by small molecules (luc reporter). As to the method:
They were grown from frozen transformants.
20µl of yeast cultures were delivered into 96 well half area white plates (Coming-Costar, ref. 3693). When applicable, 2µl of either DMSO 10% or 10µM of small molecules were added. 2µl of Galactose 20% were added to the wells to induce the expression of the preys. When two different yeast cultures were mixed in a single well, 10µl of each culture were used, to reach a total of 20µl. Plates were incubated at room temperature and left non-agitated for various times. To reveal the activity of both luciferases, a Dual-Glo™ luciferase assay system was used (Promega, ref. E2920) according to the instructions of the manufacturer. Briefly, to lyse the yeast and reveal the activity of firefly luciferase, 25µl of reagent was added and the plates were incubated for another 40 to 60min at room temperature, without agitation, before being read in a luminometer. To reveal the activity of Renilla luciferase, 25µl of "stop&glo reagent" were added to the wells and the plates were incubated for another 60min at room temperature, without agitation, before a second reading. Luminescence was measured by a Trilux (Perkin Elmer) setting the integration at 1sec/well. Values are given in LCPS (1LCPS = 100 counts per sec).

Read-outs that look alike come from different tables or passages of the source. A value given as a limit tells only on which side of the number the result lay.

Chain of TGF-β-R/FKBP12 (Q62658 whole entry): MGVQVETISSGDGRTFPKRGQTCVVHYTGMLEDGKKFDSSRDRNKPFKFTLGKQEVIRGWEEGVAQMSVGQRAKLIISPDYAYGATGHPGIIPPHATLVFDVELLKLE
Chain of TGF-β-R/FKBP12 (P80204 146-501 partner): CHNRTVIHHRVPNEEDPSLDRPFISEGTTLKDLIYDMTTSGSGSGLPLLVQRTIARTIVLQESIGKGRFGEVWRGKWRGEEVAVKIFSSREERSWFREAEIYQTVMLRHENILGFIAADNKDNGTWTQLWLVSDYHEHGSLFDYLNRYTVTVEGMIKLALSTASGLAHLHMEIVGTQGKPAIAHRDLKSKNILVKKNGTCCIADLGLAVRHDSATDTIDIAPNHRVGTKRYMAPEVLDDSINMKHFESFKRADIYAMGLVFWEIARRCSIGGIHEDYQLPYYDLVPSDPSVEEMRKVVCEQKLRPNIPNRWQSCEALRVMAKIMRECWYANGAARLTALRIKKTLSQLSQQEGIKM

For `C[C@@H]1C[C@@H]([C@H](O)CC2CC(=O)NC(=O)C2)C(=O)[C@@H](C)C1` [cycloheximide], the “effect on ruc two-hybrid signal” value in test [1] is on record as “strongly inhibited both two-hybrid signals”. Also, the “effect on luc two-hybrid signal” value in test [2] is recorded as “strongly inhibited both two-hybrid signals”.

Turning to `C=CC[C@@H]1/C=C(\C)C[C@H](C)C[C@H](OC)[C@H]2O[C@@](O)(C(=O)C(=O)N3CCCC[C@H]3C(=O)O[C@H](/C(C)=C/[C@@H]3CC[C@@H](O)[C@H](OC)C3)[C@H](C)[C@@H](O)CC1=O)[C@H](C)C[C@@H]2OC` [FK506], the “inhibition of the ruc two-hybrid signal” value in test [1] (ERG6 deleted strain, high concentration of FK506, non-cognate interaction, duplex, induction time 5h) came out at 40%. Moreover, the inhibition at 10 µM is 46% at TGF-β-R/FKBP12 (read-out: % Inhibition 10µM, Addition of compound C 23h after induction of prey (partner B), plates read 5h later, TB50 WT); 80% on TGF-β-R/FKBP12 (read-out: % Inhibition 10µM, Addition of compound C before induction of prey (partner B), 5h induction time, TB50 WT); above 90% at TGF-β-R/FKBP12 (read-out: inhibition of two-hybrid signals, 10µM FK506, maximum inhibition after 4h of induction time).

Values taken from EP1582590A1, “Sequential intracellular screening method” (Aptanomics, priority 2004, dated 2005).
